In data set [1] the test system is basilar artery vasoconstriction. To be noted: canine two-hemorrhage model, after 7 days; cited from earlier work.
In data set [2] the test system is cerebral vasospasm. The conditions noted are these: rat, cited from earlier work.
Data set [3] addresses T1, endothelin receptor ETA (Homo sapiens, UniProt P25101).
T1 sequence (P25101 21-427): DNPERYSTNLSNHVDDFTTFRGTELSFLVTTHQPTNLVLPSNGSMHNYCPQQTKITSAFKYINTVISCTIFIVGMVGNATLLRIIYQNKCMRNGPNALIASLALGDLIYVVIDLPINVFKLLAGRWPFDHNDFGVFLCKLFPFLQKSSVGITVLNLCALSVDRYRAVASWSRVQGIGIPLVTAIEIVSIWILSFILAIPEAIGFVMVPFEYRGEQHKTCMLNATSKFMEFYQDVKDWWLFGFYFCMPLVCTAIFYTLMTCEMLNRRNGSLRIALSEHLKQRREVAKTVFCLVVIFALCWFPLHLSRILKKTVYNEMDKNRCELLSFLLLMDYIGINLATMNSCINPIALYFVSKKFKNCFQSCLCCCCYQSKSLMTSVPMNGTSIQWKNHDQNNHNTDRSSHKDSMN
In kind it is binding. The conditions noted are these: Human cloned receptor data (footnote c); read-out: ERBA-A IC50.

Data set [4] relates to central nervous system. To be noted: intracerebroventricular, rats; cited from earlier work.
Data set [5] has as its system brain. To be noted: new model of local ischemia in the brain; cited from earlier work.
Data set [6] concerns the target T2, ETA (rabbit femoral artery) (Oryctolagus cuniculus, UniProt A5A8K3).
T2 construct: Femoral and pulmonary arteries were isolated, cleaned of connective tissue, and cut into 4-mm rings; from tissue; host or cells: endothelium-denuded femoral artery rings of male New Zealand rabbits
T2 sequence (A5A8K3 21-427): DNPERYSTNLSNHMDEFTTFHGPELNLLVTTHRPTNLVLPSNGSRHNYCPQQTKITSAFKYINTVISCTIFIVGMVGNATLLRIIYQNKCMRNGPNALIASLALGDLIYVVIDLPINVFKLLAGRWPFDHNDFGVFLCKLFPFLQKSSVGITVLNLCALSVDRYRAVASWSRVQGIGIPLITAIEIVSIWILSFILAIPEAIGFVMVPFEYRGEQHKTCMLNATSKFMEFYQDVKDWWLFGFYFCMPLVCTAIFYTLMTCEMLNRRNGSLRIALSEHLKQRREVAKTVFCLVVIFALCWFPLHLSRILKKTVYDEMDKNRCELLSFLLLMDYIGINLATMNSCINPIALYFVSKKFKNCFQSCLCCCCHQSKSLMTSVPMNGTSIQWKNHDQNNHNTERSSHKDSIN
Kind of data set: Antagonism of ET-1 stimulated vasoconstriction (VERA-A) in the rabbit femoral artery. To be noted: ET-1 agonist, antagonist added 30 minutes prior. As to the method:
Male New Zealand rabbits were killed by cervical dislocation and exsanguination. Femoral and pulmonary arteries were isolated, cleaned of connective tissue, and cut into 4-mm rings. The endothelium was denuded by placing the rings over hypodermic tubing (32 gauge for femoral rings and 28 gauge for pulmonary rings, Small Parts, Inc, Miami, Fla.) and gently rolling them. […] Resting tension was adjusted to 3.0 g for femoral and 4.0 g pulmonary arteries; the rings were left for 90 minutes to equilibrate.

Data set [7] has as its target T3, human ETB receptor (Homo sapiens, UniProt P24530).
T3 construct: expressed in transfected cells; host or cells: CHO-K1
T3 sequence (P24530 27-442): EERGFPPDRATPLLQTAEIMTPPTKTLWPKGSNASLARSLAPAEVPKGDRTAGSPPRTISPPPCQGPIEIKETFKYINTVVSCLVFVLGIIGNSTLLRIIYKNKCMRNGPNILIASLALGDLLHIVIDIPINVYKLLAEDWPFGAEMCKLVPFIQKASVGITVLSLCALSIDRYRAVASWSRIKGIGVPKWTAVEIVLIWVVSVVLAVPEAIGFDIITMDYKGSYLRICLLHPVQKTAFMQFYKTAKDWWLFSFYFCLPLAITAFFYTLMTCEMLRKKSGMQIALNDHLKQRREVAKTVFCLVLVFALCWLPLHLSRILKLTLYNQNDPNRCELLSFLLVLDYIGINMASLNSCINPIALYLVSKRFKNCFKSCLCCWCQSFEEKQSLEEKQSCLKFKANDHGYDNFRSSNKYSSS
In kind it is binding, human (method text also: rat cerebellar membranes). To be noted: Human cloned receptor data (footnote c); read-out: ERBA-B IC50. The text has this:
The compounds of Formula I are valuable antagonists of endothelin.
ENDOTHELIN RECEPTOR BINDING ASSAY-B (ERBA-B) [^125 I]-ET-1 BINDING IN RAT CEREBELLAR MEMBRANES
materials and Terms Used:
Count filters for radioactivity in gamma counter.
The above process has also been modified by using human recombinant CHO-K1 cells.
The tissue used for human ETB was recombinant human ETB receptor expressed in CHO-K1 cells (chinese hamster ovary cells). The gene for human ETB receptor was cloned and inserted into the pRc-CMW expression vector, then transfected into CHO-K1 cells by electroporation. For binding assays, membranes (0.7 mg protein) of CHO-K1 cells expressing recombinant human ETB receptor were used.
^c Human cloned receptor data

The subject of data set [8] is cerebral vasospasm. The conditions noted are these: rabbit; cited from earlier work.
Data set [9] deals with ETA. To be noted: mouse endotoxic shock; cited from earlier work.

Where two headings read alike, the source gives them in different places. Where a SMILES comes first, the peptide text is derived from it. Where no end group is shown, it is not given here. [ ]: non-standard residue; d: D form.

FR 139317: the “inhibition of vasoconstriction of the basilar artery” value in [1] is on record as “significantly inhibited the vasoconstriction of the basilar artery after 7 days”.
Turning to `COc1cccc(Oc2c(NS(=O)(=O)c3ccc(C(C)(C)C)cc3)ncnc2OCCO)c1` [Ro 46-2005], the “effect on systemic arterial blood pressure” value in data set [2] (SAH) is “no significant effect on systemic arterial blood pressure”. The “effect on early cerebral vasospasm following SAH” value in data set [2] is on record as “prevent early cerebral vasospasm”.
Take `COc1ccc(C2(OC(=O)N[C@@H](C)c3cccc4ccccc34)OC(=O)C(c3ccc4c(c3)OCO4)=C2Cc2cc(OC)c(OC)c(OC)c2)cc1` (stereo partly shown) [Example 2, (1-Naphthalen-1-yl-ethyl)-carbamic acid-4-benzo[1,3]dioxol-5-yl-2-(4-methoxy-phenyl)-5-oxo-3-(3,4,5-trimethoxy-benzyl)-2,5-dihydro-furan-2-yl ester]: the IC50 in data set [3] worked out at 1 nM.
As to “ET-1: a potent vasoconstrictor, is a 21 amino acid bicyclic peptide (CSCSSLMDKECVYFCHLDIIW; ends and bridges not checked; also: bicyclic peptide; UniProt P05305 53-73, looked up)”, in [4], the behavioral effects result was “evoke several behavioral effects”. For the same compound, the lesion development result in data set [5] is reported as “induced lesion development”.
As to `COc1ccc(C2(OC(=O)N[C@@H](C)c3ccccc3)OC(=O)C(c3ccc4c(c3)OCO4)=C2Cc2ccccc2)cc1` (stereo partly shown) [Example 1, (1-Phenyl-ethyl)-carbamic acid-4-benzo[1,3]dioxol-5-yl-3-benzyl-2-(4-methoxy-phenyl)-5-oxo-2,5-dihydro-furan-2-yl ester], the “VERA-A pA2” value in data set [6] was 6.1.
In the case of `CCOC(=O)CNC(=O)OC1(c2ccc(OC)cc2)OC(=O)C(c2ccc3c(c2)OCO3)=C1Cc1cc(OC)c(OC)c(OC)c1` (stereo not shown) [Example 3, [4-Ben zo[1.3]dioxol-5-yl-2-(4-methoxy-phenyl)-5-oxo-3-(3,4,5-trimethoxy-benzyl)-2,5-dihydro-furan-2-yloxycarbonylamino]-acetic acid ethyl ester], the IC50 in data set [3] came out at 0.35 nM; in data set [7], 1800 nM. In addition, in data set [6] (read-out: VERA-A pA2 (converted)), the Kb is 50.1 nM.
As to `CC(C)C[C@@H]1NC(=O)[C@@H](C(C)C)NC(=O)[C@@H]2CCCN2C(=O)[C@@H](CC(=O)O)NC(=O)[C@@H](Cc2c[nH]c3ccccc23)NC1=O` [BQ-123] (cyclo(L[dW][dD]P[dV])), the “effect on early cerebral vasospasm following SAH” value in data set [2] and in data set [8] was “prevents early cerebral vasospasm” each time. For the same compound, in [9], the survival rate result was “significantly increased the survival rate”.

The values above are taken from patent publication US5922759A, “Butenolide endothelin antagonists” (Warner-Lambert Company, priority 1997, dated 1999).
